Assay results reported in PMC10447463, “Data-mining unveils structure–property–activity correlation of viral infectivity enhancing self-assembling peptides” (Nature Communications, 2023).

Experiments:
[1] = system: HIV-1 infection of TZM-bl cells; experiment: HIV-1 infectivity enhancement assay, β-galactosidase luminescence; type: cell-based; conditions: for Log10 Inf. rel. to EF-C: log10 of HIV-1 infection of TZM-bl cells relative to EF-C, Fig S15 source data, asymmetric std dev errors
[2] = Zeta-potential measurement; type: physicochemical; conditions: zeta potential of peptide; Fig S15 source data
Experimental: 4 µL of 1 mg/mL peptide fibrils solution is added to a 20 µL, 50 µM ThT–solution in PBS. The mixture is incubated for 15 min at RT to allow binding of ThT dye with β–sheet rich structures. For reference PBS (4 µL) was added instead of peptide fibril solution. The samples were placed in black UV Star® 384 microliter well–plates (Greiner bio–one). Fluorescence spectra were recorded on an Infinite® M1000 PRO microplate reader (Tecan) at λem = 488 nm upon excitation at λex = 440 nm with 10 nm bandwidths and multiple reads per well (3×3). Measurements were repeated in triplicates and averaged with standard deviation. […] Zeta-Potential. For the determination of the surface charge of aggregated peptides zeta-potential measurements were conducted with a Zetasizer Nano ZS, Malvern Instruments. Unless stated otherwise the peptides were dissolved from DMSO (10 mg/mL) in PBS (pH 7.4) to concentration of 1 mg/mL and incubated for 1d at RT. Just before the measurement the 60 µL of the peptides were further diluted in 600 µL KCl (aq, 1 mM) in a 1 mL disposable folded capillary cells (DTS–1060, Zetasizer Nano series, Malvern). The zeta potential of the peptides was derived from the electrophoretic mobility based on the Smoluchowski formula. All measurements were averaged over two individually performed experiments and conducted in triplicates for each sample. Aggregate analysis. […] Furthermore, fluorescence microscopy was conducted by staining 1 µL preformed fibrils (1 mg/mL) with 9 µL ThT (50 µM). Brightfield microscopy was performed simultaneously to evaluate aggregation also for non ThT-active fibrils. The measurements were performed on a Leica DMi8 microscope with 10x air objective and equipped with a Leica MC170 HD camera with a filter setting λem = 527/30 nm upon excitation at λex = 480/40 nm) and processed with the Leica LASX software. To quantify size and number of microscopic aggregation of particles > 10 µm^2 at least 3 independently measured images were analyzed via the 3D object counter analysis tool of ImageJ, v 1.53f51. Sum–frequency generation. The SFG experiments were carried out with a femtosecond Ti: Sapphire amplified laser system (Spitfire Ace, Spectra–Physics, 800 nm, 40 fs, 1 kHz) with 5 W output power. We used 2 W to pump an optical parametric amplifier (TOPAS, light conversion) with a non–collinear difference frequency generation stage to generate broadband IR pulses. Another 1 W of the laser output passed through an etalon to generate narrowband visible pulses (10 cm^-1). The incident angles of the visible and IR beams were 36° and 41° with respect to the surface normal, respectively. The visible (13 µJ) and IR (5 µJ) pulses were overlapped spatially and temporally at the sample position. Subsequently, the generated SFG pulse was guided into a spectrograph (Acton SP 300i, Princeton Instruments), and detected with an EMCCD (Newton, Andor Technology). To avoid IR absorption of water vapor, we purged N2 for the measurement. All spectra were collected in the ssp (denoting s-, s- and p-polarized SFG, visible and IR, respectively) polarization combination. The spectra were normalized to the non–resonant signal taken from z–cut quartz after subtracting a background spectrum. […]

[3] = type: physicochemical; conditions: ThT-active if fluorescence at least twice the control
Experimental: 4 µL of 1 mg/mL peptide fibrils solution is added to a 20 µL, 50 µM ThT–solution in PBS. The mixture is incubated for 15 min at RT to allow binding of ThT dye with β–sheet rich structures. For reference PBS (4 µL) was added instead of peptide fibril solution. The samples were placed in black UV Star® 384 microliter well–plates (Greiner bio–one). Fluorescence spectra were recorded on an Infinite® M1000 PRO microplate reader (Tecan) at λem = 488 nm upon excitation at λex = 440 nm with 10 nm bandwidths and multiple reads per well (3×3). Measurements were repeated in triplicates and averaged with standard deviation. […] Zeta-Potential. For the determination of the surface charge of aggregated peptides zeta-potential measurements were conducted with a Zetasizer Nano ZS, Malvern Instruments. Unless stated otherwise the peptides were dissolved from DMSO (10 mg/mL) in PBS (pH 7.4) to concentration of 1 mg/mL and incubated for 1d at RT. Just before the measurement the 60 µL of the peptides were further diluted in 600 µL KCl (aq, 1 mM) in a 1 mL disposable folded capillary cells (DTS–1060, Zetasizer Nano series, Malvern). The zeta potential of the peptides was derived from the electrophoretic mobility based on the Smoluchowski formula. All measurements were averaged over two individually performed experiments and conducted in triplicates for each sample. Aggregate analysis. […] Furthermore, fluorescence microscopy was conducted by staining 1 µL preformed fibrils (1 mg/mL) with 9 µL ThT (50 µM). Brightfield microscopy was performed simultaneously to evaluate aggregation also for non ThT-active fibrils. The measurements were performed on a Leica DMi8 microscope with 10x air objective and equipped with a Leica MC170 HD camera with a filter setting λem = 527/30 nm upon excitation at λex = 480/40 nm) and processed with the Leica LASX software. To quantify size and number of microscopic aggregation of particles > 10 µm^2 at least 3 independently measured images were analyzed via the 3D object counter analysis tool of ImageJ, v 1.53f51. Sum–frequency generation. The SFG experiments were carried out with a femtosecond Ti: Sapphire amplified laser system (Spitfire Ace, Spectra–Physics, 800 nm, 40 fs, 1 kHz) with 5 W output power. We used 2 W to pump an optical parametric amplifier (TOPAS, light conversion) with a non–collinear difference frequency generation stage to generate broadband IR pulses. Another 1 W of the laser output passed through an etalon to generate narrowband visible pulses (10 cm^-1). The incident angles of the visible and IR beams were 36° and 41° with respect to the surface normal, respectively. The visible (13 µJ) and IR (5 µJ) pulses were overlapped spatially and temporally at the sample position. Subsequently, the generated SFG pulse was guided into a spectrograph (Acton SP 300i, Princeton Instruments), and detected with an EMCCD (Newton, Andor Technology). To avoid IR absorption of water vapor, we purged N2 for the measurement. All spectra were collected in the ssp (denoting s-, s- and p-polarized SFG, visible and IR, respectively) polarization combination. The spectra were normalized to the non–resonant signal taken from z–cut quartz after subtracting a background spectrum.
(§1) 1. Remarks on experimental parameters and bioinformatic descriptors

[4] = type: physicochemical; set-up: key to Fibril / Fibril Formation / TEM 2cat / Fibril: 1 = fibrils present; 0 non-fibrillar structures; conditions: TEM, 1 mg/mL, uranyl acetate stain, qualitative
Experimental: For ATR FT–IR spectroscopy measurements, 200 µL of the respective 1 mg/mL PNF solution was lyophilized and the resulting powder used for measurement. All spectra were recorded on a Bruker Tensor 27 spectrometer with a diamond crystal as ATR element (PIKE MiracleTM, spectral resolution 2 cm^-1). Every sample was measured with 64 scans. Data were analyzed with OriginLab software and calculation of β–sheet content was conducted according to a previous report. TEM. For TEM measurements 5 µL of PNF fibrils (1 mg/mL) were placed on copper grids coated with carbon and formvar layer (300 mesh, Plano GmbH). After 10 min incubation time, the grids were staining with 4% uranyl acetate solution for 2.5 min and washed with water. Measurements were performed on a Jeol 1400 electron microscope with 120 kV acceleration voltage. CR Assay. For the determination of the amount of peptide monomer converting into nanostructures the amine reactive dye fluorescamine was used analogous to a previous reported protocol. Briefly, 100 µL of the preformed PNF solution was centrifuged in a Vivaspin 500 tube (3 kDa MWCO) to separate fibers from free peptide monomer (16200 x g, 4 °C, 45 min). The filtrate and 100 μL of the non-filtered PNF sample were lyophilized and dissolved in 30 μL DMSO. 10 μL of the filtrate and non-filtered DMSO samples were submitted in a black UV Star® 384 microliter well–plates (Greiner bio–one) and 3 μL of the fluorescamine solution (10 mg/mL, DMSO) was added to measure the fluorescence enhancement. After 20 min of incubation at RT, fluorescence was recorded on an Infinite® M1000 PRO microplate reader (Tecan) at λem = 470 nm upon excitation at λex = 365 nm with 10 nm bandwidths and multiple reads per well (3×3). Measurements were repeated in triplicates and averaged with standard deviation. All values were calculated as n-fold fluorescence enhancement (DMSO only as a reference was set to 1). The conversion rate CR was defined according to the equation Eq. (3).3 CR=100−100×fluorescenceintensityfiltrate/fluorescenceintensityoriginal[%]
as §1
1.1 Experimental parameters
Transmission electron microscopy (TEM) measurements. TEM measurements were used to control if peptides assemble. The assemblies were categorized in non -fibrillar structures (no assembly, […]
grid but only amorphous aggregates. In contrast, peptides defined as fibrillar may also include amorphous structures. Amongst nonfibrillar assemblies also amorphous aggregates are summarized.
Amorphous aggregates are defined as structures with high β-sheet content which lack long-range order, that is crystallinity or fibril formation. It is generally assumed that these structures might be

[5] = infectivity class (low / medium / high) of each library peptide, main list in c1-c6, same classes repeated in sub-lists of sequences containing the hydrophobicity/charge patterns P+,H0,P+,H0,P0,H0,P0, P+,H0,P0,H0,P0,H0,P0, P+,H0,P0,H0
[6] = infectivity class (low / medium / high) of the peptide in the sequence-pattern analysis, Fig. S22-A4, class limits not given
[7] = input.xlsx of the Pattern-Analysis script, infectivity relative to EF-C (peptide 59 = 1.00)

Substance	infectivity [1, 5]	Log10 Inf. rel. to EF-C [1]	Zeta-pot. / mV [2] [mV]	infectivity [1, 7]	other results
MDQMDQMDQMDQMDQ [CN23]	low	-2.37	-14.98		
EIKIQINM [TM73]	low	-1.001	-22.33		infectivity [1, 6]: low
MKFM [CN32]	low	-1.756	-16		
HGEHGE [CN6]	low	-2.193	-12.6		
CKIKQIIRGD [psis22]		-1.311	13.2		infectivity [1, 6]: low
CKFC [CN33]	low	-1.959	-19.89		
HGEHGEHGE [CN7]	low	-1.72	-24.2		
CETMYDKILKNLSRSR [CR16]	low	-1.716	0.41		
FKFDKFKFDK [CN26]	low	-1.334	-12.7		
IKVAVKIKIQINM [TM74]	medium	-0.3046	14.5		
KYKGAIIGNIK [CN19]	low	-2.508	-9.14		
KNDKND [CN5]	low	-1.978	-15		
KNERIKNERI [CN3]	low	-1.888	-16		
KFKFEFEF [MGe01]		-1.547	-2.55		infectivity [1, 6]: low
PPFHPPPFHP [CN22]	low	-1.751	-15.8		
HHHHEIEIEIEI [JR9]	low	-1.534	-6.91		
KIEIQINM [NM6]		-1.458	-0.35		infectivity [1, 6]: low

Substance	infectivity [1, 5]	Log10 Inf. rel. to EF-C [1]	Zeta-pot. / mV [2] [mV]	infectivity [1, 7]	other results
KVWWNF					ThT Cat. / ThT-Fluorescence (categorical) [3]: 0 (ThT-inactive (N-Fold <2)); Fibril / Fibril Formation [4]: 0
RPRGLLLGNLR [CN20]	low	-1.3163	-8.15		
RGDKIRGDKI [CN4]	low	-2.126	-13.57		
CKFQC [CN31]	low	-1.643	-17.38		
KKWWNF					ThT Cat. / ThT-Fluorescence (categorical) [3]: 0 (ThT-inactive (N-Fold <2)); Fibril / Fibril Formation [4]: 0
RVWWNF					ThT Cat. / ThT-Fluorescence (categorical) [3]: 0 (ThT-inactive (N-Fold <2)); Fibril / Fibril Formation [4]: 0
RGDKIKIQINMC [compound 111]				1.07	
KFKFQFF [compound 121]				0.12	
CKFKFQF [compound 6]				1.23	
SISISRRI [compound 44]				0.0283	
KIKQII [compound 107]				0.00492	
QCKIKIQINM [compound 18]				0.40	
CKIKQIINMWQ [compound 101]				1.24	
KIKIKIQI [compound 115]				0.10	
RGDKIRGDKI [compound 51]				0.00748	
KAKQAANMWQ [compound 69]				0.03	
